For one data set, the system named is normal human melanocytes. Put plainly: Depigmenting activity: reduction of melanin production in normal human melanocytes in vitro. It is filed as cell-based. The conditions noted are these: Melanocyte, 72 h, 72 hours incubation, maximum concentration tested 200 μM, read-out: IC50 (concentration at which a 50% decrease in melanin synthesis is achieved). Here is the method: The measurement of the depigmenting activity (reduction of melanin production) of compounds of formula (I) was performed by assaying normal human melanocytes in vitro as follows.
First, normal human melanocytes are cultured and distributed in a multiwell plate. After 24 hours, the culture medium was replaced with a medium containing the compounds of formula (I) to be evaluated. The cells were incubated 72 hours before measurement of the final optical density, which measures the amount of melanin produced by the melanocytes. A dose effect was performed using a wide concentration range of the compounds evaluated. Thus, by making the concentrations and the melanin measurements correspond, it was possible to determine an IC50 in μM: concentration at which a 50% decrease in melanin synthesis is achieved.
Various test campaigns were conducted and the test results are collated in the tables below.

Data set [1] deals with coculture of keratinocytes and melanocytes. Description: Coculture experiment: melanogenesis-modulating effect and cytotoxicity. It is filed as cell-based. The following applies: for IC50: melanin optical density, read-out: IC50 (concentration for which 50% of the melanin synthesis is inhibited). Here is the method:
The melanogenesis-modulating effect of compound D was measured according to the method described in patent FR-A-2734825, and also in the article by R. Schmidt, P. Krien and M. Régnier, Anal. Biochem., 235(2), 113-18, 1996. This test is performed on a coculture of keratinocytes and melanocytes.
For the test compounds, the following were determined: • the cytotoxicity, • the inhibitory activity on melanin synthesis, by estimating the melanin optical density.
The IC50 values (concentration for which 50% of the melanin synthesis is inhibited) were determined.
The test was also performed with the compound 5-[(E)-2-(4-hydroxyphenyl)ethenyl]benzene-1,3-diol described in the prior art patent application JP01038009,

The mark [2] stands for this setting: values marked *: different campaigns each time.
Where [3] appears, read: coculture of keratinocytes and melanocytes.

The structures appear in SMILES notation. Like-named read-outs stand apart in the source and are kept apart here.

On to `CC(Cc1ncc[nH]1)c1ccc(O)cc1O` (stereo not shown) [Compound A, 4-[1-(1H-imidazol-2-yl)propan-2-yl]benzene-1,3-diol], for which the IC50 in the data set on normal human melanocytes (setting [2]) was 3.7 µM.
For the compound `CC(Cc1nccs1)c1ccc(O)cc1O` (stereo not shown) [Compound B, 4-[1-(1,3-thiazol-2-yl)propan-2-yl]benzene-1,3-diol], the figures for the IC50 with normal human melanocytes (melanin by optical density) and with normal human melanocytes (setting [2]) were 5.9 µM and 1.07 µM, respectively.
Consider `CC(Cc1nc2ccccc2[nH]1)c1ccc(O)cc1O` (stereo not shown) [Compound D, 4-[1-(1H-benzimidazol-2-yl)propan-2-yl]benzene-1,3-diol], for which, in data set [1], the cytotoxicity result is “non-cytotoxic”. The IC50 was 1.38 µM in data set [1] (setting [3]), 3.7 µM in the data set on normal human melanocytes (melanin by optical density) and 6.7 µM with normal human melanocytes (setting [2]).
Take `Oc1ccc(/C=C/c2cc(O)cc(O)c2)cc1` [Compound of the prior art, 5-[(E)-2-(4-hydroxyphenyl)ethenyl]benzene-1,3-diol, reference compound]: in data set [1] (setting [3]), the cytotoxicity result is “Non-cytotoxic” and the IC50 was 2.77 µM. For the same compound, in the data set with normal human melanocytes (melanin by optical density), the IC50 was determined as 8.18 µM.
